# Data published in patent publication US20120237937A1, “METHODS TO DETECT CANCER IN ANIMALS” (UNIVERSITY OF LOUISVILLE RESEARCH FOUNDATION, INC., priority 2009, published 2012).
# Where a name gives a salt, the structure may show the parent alone.
# Test: GC-MS quantification of total and 13C-enriched metabolites in paired normal and cancerous lung tissues
# Settings: patient #6 (sqC, grade II), cancer tissue
row,SMILES,metabolite content of lung tissue [μmole/g dry weight]
1,"C[C@H](N)C(=O)O [Total Ala, alanine]",15.76
2,"N[C@@H](CC(=O)O)C(=O)O [Total Asp, aspartate]",4.27
3,"O=C(O)CC(O)(CC(=O)O)C(=O)O [Total Cit, citrate]",1.32
4,"NC(=O)CC[C@H](N)C(=O)O [Total Gln, glutamine]",7.68
5,"N[C@@H](CCC(=O)O)C(=O)O [Total Glu, glutamate]",4.80
6,"O=C(O)CCC(=O)O [Total Succ, succinate]",1.34

# Same assay, conditions: patient #6 (sqC, grade II), normal tissue
row,SMILES,metabolite content of lung tissue [μmole/g dry weight]
1,"C[C@H](N)C(=O)O [Total Ala, alanine]",4.67
2,"N[C@@H](CC(=O)O)C(=O)O [Total Asp, aspartate]",1.32
3,"O=C(O)CC(O)(CC(=O)O)C(=O)O [Total Cit, citrate]",0.60
4,"NC(=O)CC[C@H](N)C(=O)O [Total Gln, glutamine]",0.56
5,"N[C@@H](CCC(=O)O)C(=O)O [Total Glu, glutamate]",0.24
6,"O=C(O)CCC(=O)O [Total Succ, succinate]",0.17

# Same assay, conditions: patient #7 (adenoC, grade II), cancer tissue
row,SMILES,metabolite content of lung tissue [μmole/g dry weight]
1,"C[C@H](N)C(=O)O [Total Ala, alanine]",6.44
2,"N[C@@H](CC(=O)O)C(=O)O [Total Asp, aspartate]",3.09
3,"O=C(O)CC(O)(CC(=O)O)C(=O)O [Total Cit, citrate]",1.18
4,"NC(=O)CC[C@H](N)C(=O)O [Total Gln, glutamine]",1.02
5,"N[C@@H](CCC(=O)O)C(=O)O [Total Glu, glutamate]",2.97
6,"O=C(O)CCC(=O)O [Total Succ, succinate]",0.70

# Same assay, conditions: patient #7 (adenoC, grade II), normal tissue
row,SMILES,metabolite content of lung tissue [μmole/g dry weight]
1,"C[C@H](N)C(=O)O [Total Ala, alanine]",6.25
2,"N[C@@H](CC(=O)O)C(=O)O [Total Asp, aspartate]",3.83
3,"O=C(O)CC(O)(CC(=O)O)C(=O)O [Total Cit, citrate]",1.21
4,"NC(=O)CC[C@H](N)C(=O)O [Total Gln, glutamine]",1.41
5,"N[C@@H](CCC(=O)O)C(=O)O [Total Glu, glutamate]",2.96
6,"O=C(O)CCC(=O)O [Total Succ, succinate]",0.50

# Same assay, conditions: patient #8 (sqC, grade II-III), cancer tissue
row,SMILES,metabolite content of lung tissue [μmole/g dry weight]
1,"C[C@H](N)C(=O)O [Total Ala, alanine]",9.28
2,"N[C@@H](CC(=O)O)C(=O)O [Total Asp, aspartate]",1.51
3,"O=C(O)CC(O)(CC(=O)O)C(=O)O [Total Cit, citrate]",1.56
4,"NC(=O)CC[C@H](N)C(=O)O [Total Gln, glutamine]",1.32
5,"N[C@@H](CCC(=O)O)C(=O)O [Total Glu, glutamate]",3.25
6,"O=C(O)CCC(=O)O [Total Succ, succinate]",1.84

# Same assay, conditions: patient #8 (sqC, grade II-III), normal tissue
row,SMILES,metabolite content of lung tissue [μmole/g dry weight]
1,"C[C@H](N)C(=O)O [Total Ala, alanine]",4.97
2,"N[C@@H](CC(=O)O)C(=O)O [Total Asp, aspartate]",2.67
3,"O=C(O)CC(O)(CC(=O)O)C(=O)O [Total Cit, citrate]",1.28
4,"NC(=O)CC[C@H](N)C(=O)O [Total Gln, glutamine]",0.64
5,"N[C@@H](CCC(=O)O)C(=O)O [Total Glu, glutamate]",1.88
6,"O=C(O)CCC(=O)O [Total Succ, succinate]",0.89

# Same assay, conditions: patient #9 (sqC, grade II), cancer tissue
row,SMILES,metabolite content of lung tissue [μmole/g dry weight]
1,"C[C@H](N)C(=O)O [Total Ala, alanine]",15.08
2,"N[C@@H](CC(=O)O)C(=O)O [Total Asp, aspartate]",4.78
3,"O=C(O)CC(O)(CC(=O)O)C(=O)O [Total Cit, citrate]",1.53
4,"NC(=O)CC[C@H](N)C(=O)O [Total Gln, glutamine]",2.71
5,"N[C@@H](CCC(=O)O)C(=O)O [Total Glu, glutamate]",4.78
6,"O=C(O)CCC(=O)O [Total Succ, succinate]",1.59

# Same assay, conditions: patient #9 (sqC, grade II), normal tissue
row,SMILES,metabolite content of lung tissue [μmole/g dry weight]
1,"C[C@H](N)C(=O)O [Total Ala, alanine]",5.14
2,"N[C@@H](CC(=O)O)C(=O)O [Total Asp, aspartate]",1.94
3,"O=C(O)CC(O)(CC(=O)O)C(=O)O [Total Cit, citrate]",0.77
4,"NC(=O)CC[C@H](N)C(=O)O [Total Gln, glutamine]",0.74
5,"N[C@@H](CCC(=O)O)C(=O)O [Total Glu, glutamate]",1.91
6,"O=C(O)CCC(=O)O [Total Succ, succinate]",0.64

# Same assay, conditions: patient #10 (sqC, grade III), cancer tissue
row,SMILES,metabolite content of lung tissue [μmole/g dry weight]
1,"C[C@H](N)C(=O)O [Total Ala, alanine]",27.34
2,"N[C@@H](CC(=O)O)C(=O)O [Total Asp, aspartate]",1.66
3,"O=C(O)CC(O)(CC(=O)O)C(=O)O [Total Cit, citrate]",1.37
4,"NC(=O)CC[C@H](N)C(=O)O [Total Gln, glutamine]",2.99
5,"N[C@@H](CCC(=O)O)C(=O)O [Total Glu, glutamate]",3.28
6,"O=C(O)CCC(=O)O [Total Succ, succinate]",3.13

# Same assay, conditions: patient #10 (sqC, grade III), normal tissue
row,SMILES,metabolite content of lung tissue [μmole/g dry weight]
1,"C[C@H](N)C(=O)O [Total Ala, alanine]",5.42
2,"N[C@@H](CC(=O)O)C(=O)O [Total Asp, aspartate]",2.27
3,"O=C(O)CC(O)(CC(=O)O)C(=O)O [Total Cit, citrate]",0.74
4,"NC(=O)CC[C@H](N)C(=O)O [Total Gln, glutamine]",0.79
5,"N[C@@H](CCC(=O)O)C(=O)O [Total Glu, glutamate]",1.82
6,"O=C(O)CCC(=O)O [Total Succ, succinate]",1.14

# Test: Isotopic enrichment in SCID mouse tissue lactate and glucose by 1D 1H NMR
# Type: in vivo
# Settings: SCID, mouse, in vivo, 15 min
# Description: A 20% solution of glucose in normal saline was sterile-filtered. 100 μL of this solution, or a 1:10 dilution (2%) were injected into the tail vein of a restrained mouse without anesthesia.
# Mice were sacrificed at different times post glucose injection, and the following organs were dissected sequentially: lung, heart, liver, kidney, brain, spleen, and thigh muscle. Dissected tissue was flash frozen in liquid N2 within 1 minute of killing the animal.
# Frozen tissues were ground in liquid N2 to <10 μm particles in a 6750 Freezer/Mill (Retsch, Inc., Newtown, Pa.) and extracted for soluble and lipidic metabolites as follows. Up to 20 mg of frozen tissue powder in 15 ml polypropylene conical centrifuge tube (Sarstedt, Newton, N.C.) containing 3 mm diameter glass beads was vigorously mixed with 2 ml of cold acetonitrile (mass spectrometry grade, stored at −20° C.) to denature proteins, followed by addition of 1.5 ml nanopure water, and 1 ml HPLC-grade chloroform (Fisher Scientific). The mixture was shaken vigorously until achieving a milky consistency followed by centrifugation at 3,000 g for 20 minutes at 4° C. to separate the polar (top), lipidic (bottom), and tissue debris layers (interface). The polar and lipidic layers were recovered sequentially and the remaining cell debris was extracted again with 0.5 ml chloroform:methanol:butylated hydroxytoluene (BHT) (2:1:1 mM) which was pooled with the lipidic fraction. All three fractions were vacuum-dried in a speedvac device (Vacufuge, Eppendorf, New York, N.Y.) and/or by lyophylization. The dry weight of tissue debris was obtained for normalization of metabolite content. The polar extracts were redissolved in 100% D2O containing 30 nmol perdeuterated DSS (2,2-dimethyl-2-silapentane-5-sulfonate, Cambridge Isotope Laboratories, Andover, Mass.) as internal chemical shift and concentration reference for NMR measurement.
# NMR spectra were recorded at 14.1 T on a Varian Inova spectrometer equipped with a 5 mm inverse triple resonance cold probe, at 20° C. 1D NMR spectra were recorded with an acquisition time of 2 s and a recycle time of 5 sec. Concentrations of metabolites and ^13C incorporation were determined by peak integration of the ^1H NMR spectra referenced to the DSS methyl groups, with correction for differential relaxation, as previously described (See, Lane et al. (2008) Biophysical Tools for Biologists. 84: 541-588; Fan et al. (2008) Progress in NMR Spectroscopy 52: 69-117; Lane et al. (2007) Metabolomics 3: 79-86.). ^1H Spectra were typically processed with zero filling to 131 k points, and apodized with an unshifted Gaussian and a 0.5 Hz line broadening exponential.
# The same extracts from FIG. 9 were analyzed by NMR to complement the GC-MS analysis. The ^13C enrichment into glucose/glucose-6-phosphate and lactate was determined by 1D ^1H NMR. The enrichments at 15 and 30 minutes post infusion were substantial in all tissues, and peak lactate enrichments differed according to the metabolic activity or glucose uptake rates of the different tissues (Table 7).
# Lac measured at C3, G1c measured at C1α by NMR
row,SMILES,% 13C isotopic enrichment in tissue [%]
1,"C[C@H](N)C(=O)O [Total Ala, alanine]",16

# Test: GC-MS analysis of 13C-mass isotopomers of lactate in plasma after [U-13C]-glucose infusion
# Type: in vivo, human
# Settings: patient #6, [U-13C]-glucose 3 h, in excess of natural abundance
row,SMILES,Percentage distribution of 13C-mass isotopomers of lactate in plasma [%]
1,"[13CH3][13CH](O)[13C](=O)O (stereo not shown) [[U-^13C]-Lactate, uniformly ^13C labeled lactate]",1.89

# Same assay, conditions: patient #7, [U-13C]-glucose 3 h, in excess of natural abundance
row,SMILES,Percentage distribution of 13C-mass isotopomers of lactate in plasma [%]
1,"[13CH3][13CH](O)[13C](=O)O (stereo not shown) [[U-^13C]-Lactate, uniformly ^13C labeled lactate]",4.84

# Same assay, conditions: patient #8, [U-13C]-glucose 3 h, in excess of natural abundance
row,SMILES,Percentage distribution of 13C-mass isotopomers of lactate in plasma [%]
1,"[13CH3][13CH](O)[13C](=O)O (stereo not shown) [[U-^13C]-Lactate, uniformly ^13C labeled lactate]",3.31

# Same assay, conditions: patient #9, [U-13C]-glucose 3 h, in excess of natural abundance
row,SMILES,Percentage distribution of 13C-mass isotopomers of lactate in plasma [%]
1,"[13CH3][13CH](O)[13C](=O)O (stereo not shown) [[U-^13C]-Lactate, uniformly ^13C labeled lactate]",3.47

# Same assay, conditions: patient #10, [U-13C]-glucose 3 h, in excess of natural abundance
row,SMILES,Percentage distribution of 13C-mass isotopomers of lactate in plasma [%]
1,"[13CH3][13CH](O)[13C](=O)O (stereo not shown) [[U-^13C]-Lactate, uniformly ^13C labeled lactate]",6.37

# Test: NMR 13C-isotopomer profiling of TCA extracts of paired non-cancerous and cancerous lung tissues
# Settings: human, in vivo
# Description: Lung cancer patients were recruited based on the criteria of surgical eligibility and no history of diabetes. Each patient was consented in accordance with the U.S. HIPAA regulations. The following patient protocol was approved by the Internal Review Board at the University of Louisville. Ten grams uniformly ^13C labeled glucose ([U-^13C]-Glc or ^13C6-Glc or ^13C6-Glucose) in sterile saline solution were infused i.v. over a 30 min time period into each patient in the pre-op room approximately 3 or 12 hr prior to resection. Whole blood samples were collected into a vacutainer containing the anticoagulant K3EDTA or K3-EDTA before and after [U-^13C]-Glc infusion as well as after the surgery. Additional blood samples were collected 3 and 12 hr after the [U-^13C]-Glc infusion for the 12 hr treatment cases. […] The blood samples were placed on ice immediately after collection and centrifuged at 4° C. at 3,500×g for 15 min to recover the plasma fraction. All blood samples were aliquoted and flash-frozen in liquid N2 within 30 min of collection. Potassium EDTA was used as an anti-coagulant to minimize metabolic artifacts associated with anti-coagulation; it also served to remove the influence of interfering cations such as paramagnetic Fe^3+ and Cu^2+ for NMR analysis.
# All timings from first incision to cutting arteries and veins to the lung were recorded so that the period of ischemia could be determined immediately after tissue resection, excess blood was blotted from the tissue, and small pieces of non-cancerous and tumor tissue were cut by the surgeon and freeze-clamped in liquid N2 within 5 minutes of removal from the chest cavity. The freezing process arrested metabolic changes almost instantaneously. […] Non-cancerous tissue was removed at least 2 cm from the tumor margin and certified to be tumor-free by trained pathologists. Subsequent pathological evaluation also confirmed tumor status and provided the tumor stage. All samples were stored at −80° C. until further processing for analysis.
# Frozen tissue samples were pulverized into <10 μm particles in liquid N2 using a Spex freezer mill (Spex CertiPrep, Inc., Metuchen, N.J.) to maximize efficiency for subsequent extraction while maintaining biochemical integrity. An aliquot of the frozen powder was lyophilized before extraction for metabolites.
# Water-soluble or polar metabolites were extracted from lyophilized tissue powders (4-48 mg) in ice-cold 10% trichloroacetic acid (TCA) (v/w minimum 40/1) while leaving proteins, nucleic acids, and polysaccharides behind, as described previously (Kim et al. Antioxidants & Redox Signaling 2001, 3:361-373). The extraction was performed twice for quantitative recovery. An aliquot (150 μl) of plasma samples were made to final 10% TCA concentration to precipitate proteins and recover metabolites in the supernatant. TCA was then removed from tissue or plasma extracts by lyophilization. The dry pellet was dissolved in nanopure water and two small aliquots were lyophilized for silylation and GC-MS analysis while the remaining bulk was passed through a Chelex 100 resin column (Bio-Rad Laboratories, Inc., Hercules, Calif.) to neutralize and remove interfering multivalent cations for NMR analysis.
# The ^1H reference standard, DSS (2,2-Dimethyl-2-silapentane-5-sulfonate sodium salt) was added (30 or 50 nmoles) to the TCA extracts of tissue or plasma samples, respectively. […]
row,SMILES,% enrichment [%]
1,"C[C@H](N)C(=O)O [Total Ala, alanine]",≤ 15
2,"N[C@@H](CC(=O)O)C(=O)O [Total Asp, aspartate]",< 8

# Same assay, conditions: non-cancerous tissues, patients #6-10
row,SMILES,relative 13C abundance (HSQC peak volume normalized to total succinate concentration)
1,"O=C(O)[13CH2][13CH2]C(=O)O [C-2,3-succinate]",0.6±0.7

# Same assay, conditions: tumor tissues, patients #6-10
row,SMILES,relative 13C abundance (HSQC peak volume normalized to total succinate concentration)
1,"O=C(O)[13CH2][13CH2]C(=O)O [C-2,3-succinate]",3.6±1.2
